≈ marks a conversion by molar mass, not a printed value. Read-outs that look alike come from different tables or passages of the source.
What was measured:
[1] = test system: Saccharomyces cerevisiae ATCC 9763; assay: Antifungal activity in vitro, serial dilution in RPMI 1640; format: cell-based; details: for Antifungal activity Saccharomyces cerevisiae ATCC 9763 MIC: Table 2A, RPMI 1640, pH 7.0, A531 at most 20% of control
Summary of the method: (§1)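 Growth (A531) plotted against compound concentration after serial dilution in RPMI 1640 buffered to pH 7.0, following the M27-A2 reference method. MIC: lowest concentration with A531 ≤20% of control; IC50: concentration interpolated at half control A531.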

[2] = test system: Candida albicans ATCC 10231; assay: as above; format: cell-based; details: for Antifungal activity Candida albicans ATCC 10231 IC50 / Antifungal activity Candida albicans ATCC 10231 MIC: Table 2A, RPMI 1640, pH 7.0; for Antifungal activity Candida albicans ATCC 10231 IC50: A531 50% of control; for Antifungal activity Candida albicans ATCC 10231 MIC: A531 at most 20% of control
Summary of the method: as §1

[3] = test system: Candida tropicalis KKP 334; assay: as above; format: cell-based; details: Table 2A; RPMI 1640, pH 7.0
Summary of the method: as §1

[4] = test system: Candida lusitaniae DSM 70102; assay: as above; format: cell-based; details: Table 2A; RPMI 1640, pH 7.0
Summary of the method: as §1

Candida krusei DSM 6128 = assay: as above; format: cell-based; details: Table 2A; RPMI 1640, pH 7.0
Summary of the method: as §1

[5] = test system: Candida glabrata DSM 11226; assay: as above; format: cell-based; details: Table 2A; RPMI 1640, pH 7.0
Summary of the method: as §1

Human erythrocytes = assay: Hemotoxicity (hemolytic activity)
Summary of the method: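 Human erythrocytes in saline (2×10^7/ml) were incubated with serially diluted compound at 37 °C for 30 min, then centrifuged. Released hemoglobin was read as A540 against 0.1% Triton X-100 as full hemolysis. EH50 is the interpolated concentration giving 50% of the control A540.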

CCRF-CEM = assay: Cytotoxic activity against mammalian cells in tissue culture (MTT); format: cell-based, human; details: CCRF-CEM, 120 h, MTT
Experimental: (§2) For examinations were used selected cell lines: CCRF-CEM—human acute lymphoblastic leukemia; HepG2—human malignant hepatoma; LLC-PK1—epithelial cell of pig kidney; All lines were from ATCC collection.
(§3) The study are conducted using described below methods of culturing and determination of cytotoxic activity.
(§4) CCRF-CEM cells were cultured in medium RPMI 1640+10% fetal bovine serum (FBS), LLC-PK1 cells in medium Medium 199+3% FBS, HepG2 cells in medium MEM+10% FBS. All media contained 100 μg/ml of penicillin G and streptomycin. 24-wells microplates containing appropriate medium were inoculated with the cells in amount of 1.2×10^4 cells/well and allowed to stand overnight. Next, tested compounds as solution in dimethylsulfoxide (DMSO) were added in volume of 10 μl (serial 2× dilutions). To control well 10 μl of DMSO was added. Microplates with cell suspensions were incubated for 120 h at temperature 37° C. at atmosphere of 95%/5% CO2. After incubation, to all wells 200 μl of solution of 3-(4,5-dimethylthiazole-2-yl)-2,5-diphenylotetrazole bromide (MTT) in PBS (4 mg/ml) was added and plates were further incubated for 4 h at 37° C. Next, to dissolve crystals of formazane 1 ml of DMSO was added and absorption of solutions was measured at the wavelength λ=540 nm (A540), using a microplates reader (Victor^3, Perkin-Wallac). […] From these graphs IC50 values were read, that is concentration of tested compound in the presence at which A540 value is half of A540 value measured in the control sample.

HepG2 = assay: as above; format: cell-based, human; details: HepG2, 120 h, MTT
Experimental: as §2, §3, §4

LLC-PK1 = assay: as above; format: cell-based, pig; details: LLC-PK1, 120 h, MTT
Experimental: as §2, §3, §4

[6] = test system: Trichoderma viride LOCK E159; assay: Antifungal activity in vitro, serial dilution in RPMI 1640; format: cell-based; details: Table 2B
Summary of the method: as §1

[7] = test system: Aspergillus niger LOCK E201; assay: as above; format: cell-based; details: Table 2B
Summary of the method: as §1

Candida arborea KKP 319 = assay: as above; format: cell-based; details: Table 2B
Summary of the method: as §1

[8] = test system: Candida parapsilosis DSM 5784; assay: as above; format: cell-based; details: Table 2B
Summary of the method: as §1

[9] = test system: Candida dubliniensis CBS 7987; assay: as above; format: cell-based; details: Table 2B
Summary of the method: as §1

[10] = test system: Candida stellatoidea CBS 1905; assay: as above; format: cell-based; details: Table 2B
Summary of the method: as §1

[11] = test system: Candida pseudotropicalis KKP 324; assay: as above; format: cell-based; details: Table 2B
Summary of the method: as §1

[12] = test system: Candida lipolytica KKP 322; assay: as above; format: cell-based; details: Table 2B
Summary of the method: as §1

[13] = test system: Candida quilliermondii DSM 11947; assay: as above; format: cell-based; details: Table 2B
Summary of the method: as §1

Candida albicans F2 = assay: Antifungal activity towards resistant (MDR) strains; format: cell-based; details: fluconazole sensitive, parent strain for F5
Experimental: (§5) The determination of antifungal activity was performed by the serial dilutions method in buffered RPMI 1640 medium, in a 96-wells microplates, according to the standard procedure (National Committee for Clinical Laboratory Standards. Reference method for broth dilution antifungal susceptibility testing of yeast, approved standard, 2nd ed. M27-A2 vol. 22 Wayne, Pa., 2002). The optical density of cells suspension was measured using a microplates reader (Victor^3, Perkin-Elmer) at the wavelength λ=660 nm (A660). On the basis of received results the diagrams on interrelation between the A660 value and the concentration of tested compound were made. From these graphs MIC values were read, that are the concentrations of tested compounds, in the presence at which A660 value is at most 20% of A660 value measured in control sample.

Candida albicans Gu5 = assay: as above; format: cell-based; details: fluconazole-resistant due to the overexpression of CDR1 and CDR2
Experimental: as §5

Candida albicans B3 = assay: as above; format: cell-based; details: fluconazole sensitive, parent strain for B4
Experimental: as §5

Candida albicans STY7 = assay: as above; format: cell-based
Experimental: as §5

Candida albicans F5 = assay: as above; format: cell-based
Experimental: as §5

Candida albicans STY19 = assay: as above; format: cell-based
Experimental: as §5

Candida albicans B4 = assay: as above; format: cell-based
Experimental: as §5

Candida albicans 5674 = assay: as above; format: cell-based
Experimental: as §5

Candida albicans Gu4 = assay: as above; format: cell-based; details: fluconazole sensitive, parent strain for Gu5
Experimental: as §5

Candida albicans STY31 = assay: as above; format: cell-based
Experimental: as §5

CC1OC(O[C@H]2/C=C/C=C/C=C/C=C/CC/C=C/C=C/[C@H](C)[C@@H](O)[C@@H](C)[C@H](C)OC(=O)C[C@H](O)C[C@H](O)C[C@H](O)CC[C@@H](O)[C@H](O)CC3(O)C[C@H](O)[C@@H](C(=O)O)[C@H](C2)O3)C(O)C(NC(=S)NCCCN(C)C)C1O (some centres unmarked) [Compound N17, N-{3-[3-(N,N-dimethylamino)propyl]thioureidyl}nystatin A1]
Antifungal activity Saccharomyces cerevisiae ATCC 9763 MIC [1]: 4 µg/mL
Antifungal activity Candida albicans ATCC 10231 IC50 [2]: 2.92 µg/mL
Antifungal activity Candida albicans ATCC 10231 MIC [2]: 4 µg/mL
Antifungal activity Candida tropicalis KKP 334 MIC [3]: 4 µg/mL
Antifungal activity Candida lusitaniae DSM 70102 MIC [4]: 4 µg/mL
Antifungal activity Candida krusei DSM 6128 MIC (Candida krusei DSM 6128): 8 µg/mL
Antifungal activity Candida glabrata DSM 11226 MIC [5]: 8 µg/mL
EH10 (Human erythrocytes; human erythrocytes, concentration causing 10% of hemolysis): 156.33 µg/mL
Cytotoxicity IC50 CCRF-CEM (CCRF-CEM): >100 µg/mL
Cytotoxicity IC50 HepG2 (HepG2): >100 µg/mL
Cytotoxicity IC50 LLC-PK1 (LLC-PK1): >100 µg/mL

C[C@@H]1[C@H](O)[C@@H](C)/C=C/C=C/CC/C=C/C=C/C=C/C=C/[C@H](O[C@@H]2O[C@H](C)[C@@H](O)[C@H](NC(=O)[C@H](N)c3ccccc3)[C@@H]2O)C[C@@H]2O[C@](O)(C[C@@H](O)C[C@@H](O)[C@H](O)CC[C@@H](O)C[C@@H](O)CC(=O)O[C@H]1C)C[C@H](O)[C@H]2C(=O)O [Compound N33, N-D-phenylglycylnystatin A1]
MIC Saccharomyces cerevisiae ATCC 9763 ([1]; Table 2B): 4 µg/mL (≈ 3.78 µM)
MIC Trichoderma viride LOCK E159 [6]: 32 µg/mL (≈ 30.2 µM)
MIC Aspergillus niger LOCK E201 [7]: 32 µg/mL (≈ 30.2 µM)
MIC Candida arborea KKP 319 (Candida arborea KKP 319): 32 µg/mL (≈ 30.2 µM)
MIC Candida parapsilosis DSM 5784 [8]: 32 µg/mL (≈ 30.2 µM)
MIC Candida dubliniensis CBS 7987 [9]: 16 µg/mL (≈ 15.1 µM)
MIC Candida albicans ATCC 10231 ([2]; Table 2B): 8 µg/mL (≈ 7.55 µM)
MIC Candida stellatoidea CBS 1905 [10]: 8 µg/mL (≈ 7.55 µM)
MIC Candida pseudotropicalis KKP 324 [11]: 8 µg/mL (≈ 7.55 µM)
MIC Candida lipolytica KKP 322 [12]: 16 µg/mL (≈ 15.1 µM)
MIC Candida quilliermondii DSM 11947 [13]: 16 µg/mL (≈ 15.1 µM)
MIC Candida albicans F2 (Candida albicans F2): 16 µg/mL (≈ 15.1 µM)
MIC Candida albicans Gu5 (Candida albicans Gu5): 8 µg/mL (≈ 7.55 µM)
MIC Candida albicans B3 (Candida albicans B3): 4 µg/mL (≈ 3.78 µM)
MIC Candida albicans STY7 (Candida albicans STY7; 5674 mutant derivative, deletion of CDR2): 16 µg/mL (≈ 15.1 µM)
MIC Candida albicans F5 (Candida albicans F5; fluconazole-resistant due to the overexpression of CaMDR1 and ERG11): 32 µg/mL (≈ 30.2 µM)
MIC Candida albicans STY19 (Candida albicans STY19; 5674 mutant derivative, deletion of CDR1): 16 µg/mL (≈ 15.1 µM)
MIC Candida albicans B4 (Candida albicans B4; fluconazole-resistant due to the overexpression of CaMDR1): 8 µg/mL (≈ 7.55 µM)
MIC Candida albicans 5674 (Candida albicans 5674; C. albicans 5674 overexpressing CDR1 and CDR2): 16 µg/mL (≈ 15.1 µM)
MIC Candida albicans Gu4 (Candida albicans Gu4): 8 µg/mL (≈ 7.55 µM)
MIC Candida albicans STY31 (Candida albicans STY31; 5674 mutant derivative, deletion of CDR1 and CDR2): 16 µg/mL (≈ 15.1 µM)
% of hemolysis at the concentration 300 μg ml^−1 (Human erythrocytes): 8.69%
EH10 (Human erythrocytes): >300 µg/mL

CCN(CC)CCNC(=S)NC1C(O)C(C)OC(O[C@H]2/C=C/C=C/C=C/C=C/CC/C=C/C=C/[C@H](C)[C@@H](O)[C@@H](C)[C@H](C)OC(=O)C[C@H](O)C[C@H](O)C[C@H](O)CC[C@@H](O)[C@H](O)CC3(O)C[C@H](O)[C@@H](C(=O)O)[C@H](C2)O3)C1O (some centres unmarked) [Compound N14, N-{3-[2-(N,N-diethylamino)ethyl]thioureidyl}nystatin A1]
Antifungal activity Saccharomyces cerevisiae ATCC 9763 MIC [1]: 4 µg/mL
Antifungal activity Candida albicans ATCC 10231 IC50 [2]: 3.21 µg/mL
Antifungal activity Candida albicans ATCC 10231 MIC [2]: 8 µg/mL
Antifungal activity Candida tropicalis KKP 334 MIC [3]: 8 µg/mL
Antifungal activity Candida lusitaniae DSM 70102 MIC [4]: 4 µg/mL
Antifungal activity Candida krusei DSM 6128 MIC (Candida krusei DSM 6128): 16 µg/mL
Antifungal activity Candida glabrata DSM 11226 MIC [5]: 16 µg/mL
Cytotoxicity IC50 CCRF-CEM (CCRF-CEM): >100 µg/mL
Cytotoxicity IC50 HepG2 (HepG2): >100 µg/mL
Cytotoxicity IC50 LLC-PK1 (LLC-PK1): >100 µg/mL

OC(Cn1cncn1)(Cn1cncn1)c1ccc(F)cc1F [Fluconazole, reference compound]
MIC ([1]; Saccharomyces cerevisiae, ATCC9763, Table 2B): 2 µg/mL (≈ 6.53 µM)
MIC ([6]; Trichoderma viride, LOCKE159): 8 µg/mL (≈ 26.1 µM)
MIC ([7]; Aspergillus niger, LOCKE201): 16 µg/mL (≈ 52.2 µM)
MIC (Candida arborea KKP 319; Candida, KKP319): 8 µg/mL (≈ 26.1 µM)
MIC ([8]; Lodderomyces parapsilosis, DSM5784): 8 µg/mL (≈ 26.1 µM)
MIC ([9]; Candida dubliniensis, CBS7987): 2 µg/mL (≈ 6.53 µM)
MIC ([2]; Candida albicans, ATCC10231, Table 2B): 2 µg/mL (≈ 6.53 µM)
MIC ([10]; Candida albicans, CBS1905): 0.5 µg/mL (≈ 1.63 µM)
MIC ([11]; Kluyveromyces marxianus, KKP324): 0.5 µg/mL (≈ 1.63 µM)
MIC ([12]; Yarrowia lipolytica, KKP322): 8 µg/mL (≈ 26.1 µM)
MIC ([13]; Candida, DSM11947): 8 µg/mL (≈ 26.1 µM)
MIC (Candida albicans F2; Candida albicans, F2): 32 µg/mL (≈ 104 µM)
MIC (Candida albicans Gu5; Candida albicans, GU5): 256 µg/mL (≈ 836 µM)
MIC (Candida albicans B3; Candida albicans, B3): 0.5 µg/mL (≈ 1.63 µM)
MIC (Candida albicans STY7; Candida albicans, STY7, read-out: MIC Candida albicans STY7): 512 µg/mL (≈ 1670 µM)
MIC (Candida albicans F5; Candida albicans, F5, read-out: MIC Candida albicans F5): 128 µg/mL (≈ 418 µM)
MIC (Candida albicans STY19; Candida albicans, STY19, read-out: MIC Candida albicans STY19): 64 µg/mL (≈ 209 µM)
MIC (Candida albicans B4; Candida albicans, B4, read-out: MIC Candida albicans B4): 16 µg/mL (≈ 52.2 µM)
MIC (Candida albicans 5674; Candida albicans, 5674, read-out: MIC Candida albicans 5674): 2050 µg/mL (≈ 6690 µM)
MIC (Candida albicans Gu4; Candida albicans, GU4): 0.5 µg/mL (≈ 1.63 µM)
MIC (Candida albicans STY31; Candida albicans, STY31, read-out: MIC Candida albicans STY31): 64 µg/mL (≈ 209 µM)
